Experimental data taken from patent US9969767B2, “Oxolupene derivatives” (priority 2014, dated 2018).

tested on: recombinant NL4-3 virus (Renilla luciferase in nef, Gag P373S); assay: HIV Cell Culture Assay (luciferase reporter virus in MT-2 cells); assay type: cell-based; details: NL43
Protocol: MT-2 cells and 293T cells were obtained from the NIH AIDS Research and Reference Reagent Program. MT-2 cells were propagated in RPMI 1640 media supplemented with 10% heat inactivated fetal bovine serum, […]. The 293T cells were propagated in DMEM media supplemented with 10% heat inactivated fetal bovine serum (FBS), 100 units/mL penicillin G and 100 μg/mL streptomycin. The proviral DNA clone of NL4-3 was obtained from the NIH AIDS Research and Reference Reagent Program. A recombinant NL4-3 virus, in which a section of the nef gene from NL4-3 was replaced with the Renilla luciferase gene, was used as a reference virus. In addition, residue Gag P373 was converted to P373S. Briefly, the recombinant virus was prepared by transfection of the altered proviral clone of NL4-3. Transfections were performed in 293T cells using LipofectAMINE PLUS from Invitrogen (Carlsbad, Calif.), according to manufacturer's instruction. The virus was titered in MT-2 cells using luciferase enzyme activity as a marker. Luciferase was quantitated using the Dual Luciferase kit from Promega (Madison, Wis.), with modifications to the manufacturer's protocol. The diluted Passive Lysis solution was pre-mixed with the re-suspended Luciferase Assay Reagent and the re-suspended Stop & Glo Substrate (2:1:1 ratio). Fifty (50) μL of the mixture was added to each aspirated well on assay plates and luciferase activity was measured immediately on a Wallac TriLux (Perkin-Elmer). Antiviral activities of inhibitors toward the recombinant virus were quantified by measuring luciferase activity in cells infected for 4-5 days with NLRluc recombinants in the presence serial dilutions of the inhibitor.

| Compound | EC50 [nM] |
| --- | --- |
| CC(C)C1=C2[C@H]3CC[C@@H]4[C@@]5(C)CC=C(C6=CCC(C(=O)O)CC6)C(C)(C)[C@@H]5CC[C@@]4(C)[C@]3(C)CC[C@@]2(C(=O)NCCN2CCOCC2)CC1=O (stereo partly drawn) [Example 1, 4-((3aR,5aR,5bR,7aR,11aS,11bR,13aS)-1-isopropyl-5a,5b,8,8,11a-pentamethyl-3a-((2-morpholinoethyl)carbamoyl)-2-oxo-3,3a,4,5,5a,5b,6,7,7a,8,11,11a,11b,12,13,13a-hexadecahydro-2H-cyclopenta[a]chrysen-9-yl)cyclohex-3-enecarboxylic acid] | 1.93 |
| CC(C)C1=C2[C@H]3CC[C@@H]4[C@@]5(C)CC=C(C6=CCC(C(=O)O)CC6)C(C)(C)[C@@H]5CC[C@@]4(C)[C@]3(C)CC[C@@]2(C(=O)NCCN2CCS(=O)(=O)CC2)CC1=O (stereo partly drawn) [Example 2, 4-((3aR,5aR,5bR,7aR,11aS,11bR,13aS)-3a((2-(1,1-dioxidothiomorpholino)ethyl)carbamoyl)-1-isopropyl-5a,5b,8,8,11a-pentamethyl-2-oxo-3,3a,4,5,5a,5b,6,7,7a,8,11,11a,11b,12,13,13a-hexadecahydro-2H-cyclopenta[a]chrysen-9-yl)cyclohex-3-enecarboxylic acid] | < 100 |
| CC(C)C1=C2[C@H]3CC[C@@H]4[C@@]5(C)CC=C(c6ccc(C(=O)O)cc6)C(C)(C)[C@@H]5CC[C@@]4(C)[C@]3(C)CC[C@@]2(C(=O)O)CC1=O [Example 3, (3aR,5aR,5bR,7aR,11aS,11bR,13aS)-9-(4-carboxyphenyl)-1-isopropyl-5a,5b,8,8,11a-pentamethyl-2-oxo-3,3a,4,5,5a,5b,6,7,7a,8,11,11a,11b,12,13,13a-hexadecahydro-2H-cyclopenta[a]chrysene-3a-carboxylic acid] | < 100 |
| CC(C)C1=C2[C@H]3CC[C@@H]4[C@@]5(C)CC=C(C6=CCC(C(=O)O)CC6)C(C)(C)[C@@H]5CC[C@@]4(C)[C@]3(C)CC[C@@]2(C(=O)O)CC1=O (stereo partly drawn) [Example 4, (3aR,5aR,5bR,7aR,11aS,11bR,13aS)-9-(4-carboxycyclohex-1-en-1-yl)-1-isopropyl-5a,5b,8,8,11a-pentamethyl-2-oxo-3,3a,4,5,5a,5b,6,7,7a,8,11,11a,11b,12,13,13a-hexadecahydro-2H-cyclopenta[a]chrysene-3a-carboxylic acid] | < 100 |
| CC(C)C1=C2[C@H]3CC[C@@H]4[C@@]5(C)CC=C(C6=CC[C@](CF)(C(=O)O)CC6)C(C)(C)[C@@H]5CC[C@@]4(C)[C@]3(C)CC[C@@]2(C(=O)O)CC1=O [Example 5, (3aR,5aR,5bR,7aR,11aS,11bR,13aS)-9-((S)-4-carboxy-4-(fluoromethyl)cyclohex-1-en-1-yl)-1-isopropyl-5a,5b,8,8,11a-pentamethyl-2-oxo-3,3a,4,5,5a,5b,6,7,7a,8,11,11a,11b,12,13,13a-hexadecahydro-2H-cyclopenta[a]chrysene-3a-carboxylic acid] | < 100 |
| CC(C)C1=C2[C@H]3CC[C@@H]4[C@@]5(C)CC=C(C6=CCC(C(=O)O)CC6)C(C)(C)[C@@H]5CC[C@@]4(C)[C@]3(C)CC[C@@]2(NCCN2CCS(=O)(=O)CC2)CC1=O (stereo partly drawn) [Example 6, 4-((3aR,5aR,5bR,7aR,11aS,11bR,13aS)-3a-((2-(1,1-dioxidothiomorpholino)ethyl)amino)-1-isopropyl-5a,5b,8,8,11a-pentamethyl-2-oxo-3,3a,4,5,5a,5b,6,7,7a,8,11,11a,11b,12,13,13a-hexadecahydro-2H-cyclopenta[a]chrysen-9-yl)cyclohex-3-enecarboxylic acid] | < 100 |
| CC(C)C1=C2[C@H]3CC[C@@H]4[C@@]5(C)CC=C(C6=CCC(C(=O)O)CC6)C(C)(C)[C@@H]5CC[C@@]4(C)[C@]3(C)CC[C@@]2(N)CC1=O (stereo partly drawn) [Example 7, 4-((3aR,5aR,5bR,7aR,11aS,11bR,13aS)-3a-amino-1-isopropyl-5a,5b,8,8,11a-pentamethyl-2-oxo-3,3a,4,5,5a,5b,6,7,7a,8,11,11a,11b,12,13,13a-hexadecahydro-2H-cyclopenta[a]chrysen-9-yl)cyclohex-3-enecarboxylic acid] | 0.973 |
| CC(C)C1=C2[C@H]3CC[C@@H]4[C@@]5(C)CC=C(C6=CC[C@](CF)(C(=O)O)CC6)C(C)(C)[C@@H]5CC[C@@]4(C)[C@]3(C)CC[C@@]2(N)CC1=O [Example 8, (S)-4-((3aR,5aR,5bR,7aR,11aS,11bR,13aS)-3a-amino-1-isopropyl-5a,5b,8,8,11a-pentamethyl-2-oxo-3,3a,4,5,5a,5b,6,7,7a,8,11,11a,11b,12,13,13a-hexadecahydro-2H-cyclopenta[a]chrysen-9-yl)-1-(fluoromethyl)cyclohex-3-enecarboxylic acid] | < 100 |
| CC(C)C1=C2[C@H]3CC[C@@H]4[C@@]5(C)CC=C(C6=CC[C@](CF)(C(=O)O)CC6)C(C)(C)[C@@H]5CC[C@@]4(C)[C@]3(C)CC[C@@]2(NCCN2CCS(=O)(=O)CC2)CC1=O [Example 9, (S)-4-((3aR,5aR,5bR,7aR,11aS,11bR,13aS)-3a-((2-(1,1-dioxidothiomorpholino)ethyl)amino)-1-isopropyl-5a,5b,8,8,11a-pentamethyl-2-oxo-3,3a,4,5,5a,5b,6,7,7a,8,11,11a,11b,12,13,13a-hexadecahydro-2H-cyclopenta[a]chrysen-9-yl)-1-(fluoromethyl)cyclohex-3-enecarboxylic acid] | < 100 |
| CC(C)C1=C2[C@H]3CC[C@@H]4[C@@]5(C)CC=C(C6=CC[C@](CF)(C(=O)O)CC6)C(C)(C)[C@@H]5CC[C@@]4(C)[C@]3(C)CC[C@@]2(N(CCN2CCS(=O)(=O)CC2)CCN2CCS(=O)(=O)CC2)CC1=O [Example 10, (S)-4-((3aR,5aR,5bR,7aR,11aS,11bR,13aS)-3a-(bis(2-(1,1-dioxidothiomorpholino)ethyl)amino)-1-isopropyl-5a,5b,8,8,11a-pentamethyl-2-oxo-3,3a,4,5,5a,5b,6,7,7a,8,11,11a,11b,12,13,13a-hexadecahydro-2H-cyclopenta[a]chrysen-9-yl)-1-(fluoromethyl)cyclohex-3-enecarboxylic acid] | < 100 |
| CC(C)C1=C2[C@H]3CC[C@@H]4[C@@]5(C)CC=C(C6=CC[C@](CF)(C(=O)O)CC6)C(C)(C)[C@@H]5CC[C@@]4(C)[C@]3(C)CC[C@@]2(NCCN2CCC(S(C)(=O)=O)CC2)CC1=O [Example 11, (S)-1-(fluoromethyl)-4-((3aR,5aR,5bR,7aR,11aS,11bR,13aS)-1-isopropyl-5a,5b,8,8,11a-pentamethyl-3a-((2-(4-(methylsulfonyl)piperidin-1-yl)ethyl)amino)-2-oxo-3,3a,4,5,5a,5b,6,7,7a,8,11,11a,11b,12,13,13a-hexadecahydro-2H-cyclopenta[a]chrysen-9-yl)cyclohex-3-enecarboxylic acid] | < 100 |
| CC(C)C1=C2[C@H]3CC[C@@H]4[C@@]5(C)CC=C(C6=CC[C@](CF)(C(=O)O)CC6)C(C)(C)[C@@H]5CC[C@@]4(C)[C@]3(C)CC[C@@]2(NCC[N+]2(CCN3CCC(S(C)(=O)=O)CC3)CCC(S(C)(=O)=O)CC2)CC1=O (stereo partly drawn) [Example 12, 1-(2-(((3aR,5aR,5bR,7aR,11aS,11bR,13aS)-9-((S)-4-carboxy-4-(fluoromethyl)cyclohex-1-en-1-yl)-1-isopropyl-5a,5b,8,8,11a-pentamethyl-2-oxo-3,3a,4,5,5a,5b,6,7,7a,8,11,11a,11b,12,13,13a-hexadecahydro-2H-cyclopenta[a]chrysen-3a-yl)amino)ethyl)-4-(methylsulfonyl)-1-(2-(4-(methylsulfonyl)piperidin-1-yl)ethyl)piperidin-1-ium] | < 100 |
| CC(C)C1=C2[C@H]3CC[C@@H]4[C@@]5(C)CC=C(C6=CC[C@](CF)(C(=O)O)CC6)C(C)(C)[C@@H]5CC[C@@]4(C)[C@]3(C)CC[C@@]2(CNCCCN2CCS(=O)(=O)CC2)CC1=O [Example 13] | < 100 |
| CC(C)C1=C2[C@H]3CC[C@@H]4[C@@]5(C)CC=C(c6ccc(C(=O)O)cc6)C(C)(C)[C@@H]5CC[C@@]4(C)[C@]3(C)CC[C@@]2(C(O)CNCCN(C)C)CC1=O (stereo partly drawn) [Example 14, 4-((3aR,5aR,5bR,7aR,11aS,11bR,13aS)-3a-(2-((2-(dimethylamino)ethyl)amino)-1-hydroxyethyl)-1-isopropyl-5a,5b,8,8,11a-pentamethyl-2-oxo-3,3a,4,5,5a,5b,6,7,7a,8,11,11a,11b,12,13,13a-hexadecahydro-2H-cyclopenta[a]chrysen-9-yl)benzoic acid] | 5.36 |
| CC(C)C1=C2[C@H]3CC[C@@H]4[C@@]5(C)CC=C(C6=CCC(C(=O)O)CC6)C(C)(C)[C@@H]5CC[C@@]4(C)[C@]3(C)CC[C@@]2(C(O)CN(CCN(C)C)Cc2ccc(Cl)cc2)CC1=O (stereo partly drawn) [Example 15, 4-((3aR,5aR,5bR,7aR,11aS,11bR,13aS)-3a-(2-((4-chlorobenzyl)(2-(dimethylamino)ethyl)amino)-1-hydroxyethyl)-1-isopropyl-5a,5b,8,8,11a-pentamethyl-2-oxo-3,3a,4,5,5a,5b,6,7,7a,8,11,11a,11b,12,13,13a-hexadecahydro-2H-cyclopenta[a]chrysen-9-yl)cyclohex-3-enecarboxylic acid] | < 100 |
